How the values were obtained:
Type in all cases: in vivo, human
[1] = tested on: adult patients with moderate-to-severe alopecia areata; test: Phase 2a double-blind, randomized, placebo-controlled trial, efficacy by severity of alopecia tool (SALT); conditions: for patients who achieved a ≥50% reduction in their overall SALT score: week 24, relative to baseline; for difference from placebo on all SALT measures / patients who achieved a ≥75% reduction in their overall SALT score / patients who achieved a ≥90% reduction in their overall SALT score: week 24; for significant changes in SALT score compared to placebo observed starting at: p<0.05
Description: The efficacy of treatment of hair loss disorders such as alopecia areata can be measured in a variety of ways, some of which are known in the art. For example, the “severity of alopecia tool”, otherwise known as SALT, is a validated assessment scale—developed by the National Alopecia Areata Foundation working committee—to evaluate the degree of hair loss. See, e.g., Olsen E A, Hordinsky M K, Price V H, et al. Alopecia areata investigational assessment guidelines—Part II. J Am Acad Dermatol 2004: 51: 440-447 (incorporated herein by reference). The SALT score is calculated for a patient by measuring the percentage of hair loss in each of the 4 areas of the scalp and adding the total to achieve a composite score. Hair regrowth is reflected by a decrease in the SALT score. For example, no hair on the scalp would have a SALT score of 100 while complete hair regrowth would be a SALT score of 0. In certain embodiments, methods of treatment as described herein can provide a SALT score improvement of at least 10 points after treatment (for example, from a SALT score of 100 prior to treatment to a SALT score of 90 after treatment). In further embodiments, methods of treatment as described herein can provide a SALT score improvement of at least 20 points, 30 points, 40 points, 50 points, 60 points, 70 points, 80 points, 90 points, or 100 points. In certain embodiments, methods of treatment as described herein can provide after treatment at least a 20% improvement from baseline in the patient's SALT score, or at least a 30% improvement from baseline in the patient's SALT score, or at least a 40% improvement from baseline in the patient's SALT score, or at least a 50% improvement from baseline in the patient's SALT score, or at least a 60% improvement from baseline in the patient's SALT score, or at least a 70% improvement from baseline in the patient's SALT score, or at least a 75% improvement from baseline in the patient's SALT score or at least a 80% improvement from baseline in the patient's SALT score, or at least a 90% improvement from baseline in the patient's SALT score.
(§1) A Phase 2a trial was conducted to evaluate the safety and efficacy of Compound (I) (CTP-543) in subjects with alopecia, with the primary efficacy analysis at week 24. The Phase 2a trial was a double-blind, randomized, placebo-controlled trial to evaluate the safety and efficacy of Compound (I) in adult patients with moderate-to-severe alopecia areata. Patients were sequentially randomized to receive one of three doses of Compound I as the phosphate salt (e.g., 10.5 mg of Compound (I) phosphate salt is equivalent 8 mg of Compound (I) free base). The doses of Compound (I) were 4, 8 (i.e., about 10.5 mg of Compound (I) phosphate salt), and 12 mg twice daily, and there was also a patient group receiving placebo. The primary outcome measure utilized the severity of alopecia tool (SALT) after 24 weeks of dosing.
Interim top line analysis for the 4 mg, 8 mg, and 12 mg cohorts is discussed below. The primary endpoint for the study was a 50% relative reduction in SALT between Week 24 and baseline.

[2] = tested on: adult patients with moderate-to-severe alopecia areata; test: Phase 2a trial, safety: treatment emergent adverse events by patient
Method: as §1

[3] = tested on: subjects with alopecia areata; test: Open-label extension study (OLE), SALT score after dose reduction
Method: In an ongoing open-label extension study, subjects who were previously enrolled in a qualifying clinical study (including the study described in Example 1) and received either a total daily dose of 16 mg of Compound (I) (CTP-543, phosphate salt), a total daily dose of 24 mg of CTP-543, or placebo, and completed through the 24-week treatment period, were eligible to enroll in an open-label extension study (OLE) and continue to receive treatment with CTP-543 phosphate. A total of 152 subjects were enrolled in the OLE. In the OLE, subjects received daily treatment with CTP-543 at a dose of 8 mg BID or 12 mg BID (see FIG. 8). Dose adjustments were allowed at the investigator's discretion. One subject enrolled in the OLE, who received a daily dose of 24 mg QD of CTP-543 for approximately 9 months (i.e., the 24-week study period and the initial 3 months of the OLE), experienced hair growth at that dose (SALT score of zero, i.e., full regrowth of hair prior to dose reduction). The subject then had their dose reduced to a daily dose of 8 mg BID of CTP-543 phosphate. After approximately 7 months in the OLE receiving the lower daily dose of 8 mg BID of CTP-543, the subject continued to substantially maintain hair regrowth, with a SALT score of 7.92.

Question: For [2H]C1([2H])C([C@@H](CC#N)n2cc(-c3ncnc4[nH]ccc34)cn2)C([2H])([2H])C([2H])([2H])C1([2H])[2H] [CTP-543, (R)-3-(4-(7H-pyrrolo[2,3-d]pyrimidin-4-yl)-1H-pyrazol-1-yl)-3-(cyclopentyl-2,2,3,3,4,4,5,5-d8)propanenitrile], which “separation from placebo on all measures” value ([1]; 4 mg BID) is on record?
Answer: failed to separate from placebo on all measures

Question: What about the “patients who achieved a ≥50% reduction in their overall SALT score” value (“patients who achieved a ≥50% reduction” for short) ([1]; 4 mg BID) of the same molecule?
Answer: 21%

Question: And the “difference from placebo on all SALT measures” value ([1]; 8 mg BID)?
Answer: significantly different from placebo

Question: What about the “patients who achieved a ≥75% reduction in their overall SALT score” value ([1]; 8 mg BID) of the same molecule?
Answer: 29%

Question: What about the “patients who achieved a ≥90% reduction in their overall SALT score” value ([1]; 8 mg BID) of the same molecule?
Answer: 16%

Question: What about the “patients who achieved a ≥50% reduction” value ([1]; 8 mg BID) of the same molecule?
Answer: 47%

Question: And the “significant changes in SALT score compared to placebo observed starting at” value ([1]; 8 mg cohort)?
Answer: 12 weeks

Question: What about the “12 mg BID dose compared to the 8 mg BID dose” value ([1]; 12 mg BID vs 8 mg BID) of the same molecule?
Answer: numerically superior and generally produced faster onset and greater effect

Question: What about the “difference from placebo on all SALT measures” value ([1]; 12 mg BID) of the same molecule?
Answer: significantly different from placebo

Question: And the “patients who achieved a ≥75% reduction in their overall SALT score” value ([1]; 12 mg BID)?
Answer: 42%

Question: And the “patients who achieved a ≥90% reduction in their overall SALT score” value ([1]; 12 mg BID)?
Answer: 36%

Question: And the “patients who achieved a ≥50% reduction” value ([1]; 12 mg BID)?
Answer: 58%

Question: What about the “significant changes in SALT score compared to placebo observed starting at” value ([1]; 12 mg cohort) of the same molecule?
Answer: 12 weeks

Question: What about the “Acne, patients with event” value ([2]; 4 mg twice daily) of the same molecule?
Answer: 4

Question: And the “Acne, percent of patients” value ([2]; 4 mg twice daily)?
Answer: (13.8%)

Question: What about the “Blood creatine phosphokinase increased, patients with event” value ([2]; 4 mg twice daily) of the same molecule?
Answer: 3

Question: What about the “Blood creatine phosphokinase increased, percent of patients” value ([2]; 4 mg twice daily) of the same molecule?
Answer: (10.3%)

Question: What about the “Cough, patients with event” value ([2]; 4 mg twice daily) of the same molecule?
Answer: 4

Question: What about the “Cough, percent of patients” value ([2]; 4 mg twice daily) of the same molecule?
Answer: (13.8%)

Question: What about the “Diarrhoea, patients with event” value ([2]; 4 mg twice daily) of the same molecule?
Answer: 3

Question: What about the “Diarrhoea, percent of patients” value ([2]; 4 mg twice daily) of the same molecule?
Answer: (10.3%)

Question: And the “Folliculitis, patients with event” value ([2]; 4 mg twice daily)?
Answer: 3

Question: And the “Folliculitis, percent of patients” value ([2]; 4 mg twice daily)?
Answer: (10.3%)

Question: What about the “Headache, patients with event” value ([2]; 4 mg twice daily) of the same molecule?
Answer: 5

Question: And the “Headache, percent of patients” value ([2]; 4 mg twice daily)?
Answer: (17.2%)

Question: What about the “LDL increase, patients with event” value ([2]; 4 mg twice daily) of the same molecule?
Answer: 0

Question: And the “Nasopharyngitis, patients with event” value ([2]; 4 mg twice daily)?
Answer: 3

Question: And the “Nasopharyngitis, percent of patients” value ([2]; 4 mg twice daily)?
Answer: (10.3%)

Question: What about the “Nausea, patients with event” value ([2]; 4 mg twice daily) of the same molecule?
Answer: 4

Question: What about the “Nausea, percent of patients” value ([2]; 4 mg twice daily) of the same molecule?
Answer: (13.8%)

Question: And the “Oroharyngeal pain, patients with event” value ([2]; 4 mg twice daily)?
Answer: 3

Question: And the “Oroharyngeal pain, percent of patients” value ([2]; 4 mg twice daily)?
Answer: (10.3%)

Question: And the “Upper respiratory tract infection, patients with event” value ([2]; 4 mg twice daily)?
Answer: 2

Question: And the “Upper respiratory tract infection, percent of patients” value ([2]; 4 mg twice daily)?
Answer: (6.9%)

Question: And the “Acne, patients with event” value ([2]; 8 mg twice daily)?
Answer: 4

Question: What about the “Acne, percent of patients” value ([2]; 8 mg twice daily) of the same molecule?
Answer: (10.5%)

Question: And the “Blood creatine phosphokinase increased, patients with event” value ([2]; 8 mg twice daily)?
Answer: 2

Question: What about the “Blood creatine phosphokinase increased, percent of patients” value ([2]; 8 mg twice daily) of the same molecule?
Answer: (5.3%)

Question: And the “Cough, patients with event” value ([2]; 8 mg twice daily)?
Answer: 1

Question: And the “Cough, percent of patients” value ([2]; 8 mg twice daily)?
Answer: (2.6%)

Question: And the “Diarrhoea, patients with event” value ([2]; 8 mg twice daily)?
Answer: 1

Question: What about the “Diarrhoea, percent of patients” value ([2]; 8 mg twice daily) of the same molecule?
Answer: (2.6%)

Question: What about the “Folliculitis, patients with event” value ([2]; 8 mg twice daily) of the same molecule?
Answer: 2

Question: And the “Folliculitis, percent of patients” value ([2]; 8 mg twice daily)?
Answer: (5.3%)

Question: And the “Headache, patients with event” value ([2]; 8 mg twice daily)?
Answer: 10

Question: What about the “Headache, percent of patients” value ([2]; 8 mg twice daily) of the same molecule?
Answer: (26.3%)

Question: And the “LDL increase, patients with event” value ([2]; 8 mg twice daily)?
Answer: 4

Question: And the “LDL increase, percent of patients” value ([2]; 8 mg twice daily)?
Answer: (10.5%)

Question: What about the “Nasopharyngitis, patients with event” value ([2]; 8 mg twice daily) of the same molecule?
Answer: 3

Question: What about the “Nasopharyngitis, percent of patients” value ([2]; 8 mg twice daily) of the same molecule?
Answer: (7.9%)

Question: And the “Nausea, patients with event” value ([2]; 8 mg twice daily)?
Answer: 4

Question: What about the “Nausea, percent of patients” value ([2]; 8 mg twice daily) of the same molecule?
Answer: (10.5%)

Question: What about the “Oroharyngeal pain, patients with event” value ([2]; 8 mg twice daily) of the same molecule?
Answer: 2

Question: What about the “Oroharyngeal pain, percent of patients” value ([2]; 8 mg twice daily) of the same molecule?
Answer: (5.3%)

Question: What about the “Upper respiratory tract infection, patients with event” value ([2]; 8 mg twice daily) of the same molecule?
Answer: 2

Question: What about the “Upper respiratory tract infection, percent of patients” value ([2]; 8 mg twice daily) of the same molecule?
Answer: (5.3%)

Question: And the “Acne, patients with event” value ([2]; 12 mg twice daily)?
Answer: 6

Question: What about the “Acne, percent of patients” value ([2]; 12 mg twice daily) of the same molecule?
Answer: (16.7%)

Question: And the “Blood creatine phosphokinase increased, patients with event” value ([2]; 12 mg twice daily)?
Answer: 1

Question: And the “Blood creatine phosphokinase increased, percent of patients” value ([2]; 12 mg twice daily)?
Answer: (2.8%)

Question: What about the “Cough, patients with event” value ([2]; 12 mg twice daily) of the same molecule?
Answer: 2

Question: What about the “Cough, percent of patients” value ([2]; 12 mg twice daily) of the same molecule?
Answer: (5.6%)

Question: And the “Diarrhoea, patients with event” value ([2]; 12 mg twice daily)?
Answer: 0

Question: And the “Folliculitis, patients with event” value ([2]; 12 mg twice daily)?
Answer: 1

Question: What about the “Folliculitis, percent of patients” value ([2]; 12 mg twice daily) of the same molecule?
Answer: (2.8%)

Question: And the “Headache, patients with event” value ([2]; 12 mg twice daily)?
Answer: 7

Question: And the “Headache, percent of patients” value ([2]; 12 mg twice daily)?
Answer: (19.4%)

Question: And the “LDL increase, patients with event” value ([2]; 12 mg twice daily)?
Answer: 0

Question: And the “Nasopharyngitis, patients with event” value ([2]; 12 mg twice daily)?
Answer: 9

Question: And the “Nasopharyngitis, percent of patients” value ([2]; 12 mg twice daily)?
Answer: (25.0%)

Question: And the “Nausea, patients with event” value ([2]; 12 mg twice daily)?
Answer: 1

Question: And the “Nausea, percent of patients” value ([2]; 12 mg twice daily)?
Answer: (2.8%)

Question: What about the “Oroharyngeal pain, patients with event” value ([2]; 12 mg twice daily) of the same molecule?
Answer: 1

Question: And the “Oroharyngeal pain, percent of patients” value ([2]; 12 mg twice daily)?
Answer: (2.8%)

Question: What about the “Upper respiratory tract infection, patients with event” value ([2]; 12 mg twice daily) of the same molecule?
Answer: 7

Question: And the “Upper respiratory tract infection, percent of patients” value ([2]; 12 mg twice daily)?
Answer: (19.4%)

Question: What about the serious adverse events ([2]; 4, 8 and 12 mg BID, 24 weeks) of the same molecule?
Answer: no serious adverse events

Question: And the tolerability of treatment ([2]; 4, 8 and 12 mg BID, 24 weeks)?
Answer: generally well-tolerated

Question: And the “Grade 3/4 hematology events” value ([2]; preliminary analysis, total, distributed equally across the placebo, 4 mg and 8 mg groups)?
Answer: 3

Question: And the SALT score ([3]; one subject, 24 mg QD for approximately 9 months, prior to dose reduction)?
Answer: zero

Question: And the SALT score ([3]; same subject, after approximately 7 months at the reduced dose of 8 mg BID)?
Answer: 7.92
